ChEMBL document CHEMBL1158595, “2' biaryl amides as novel and subtype selective M1 agonists. Part II: Further optimization and profiling” (Bioorg Med Chem Lett, 2010)
Active and inactive are the calls of the source. The rule behind the calls is not given here.

How the values were obtained:
[1] = target: Muscarinic acetylcholine receptors; M1 & M2 (Homo sapiens) (UniProt P11229+P08172); assay: Selectivity ratio of human muscarinic M2 receptor to human muscarinic M1 receptor
[2] = target: T1, Muscarinic acetylcholine receptor M3 (Homo sapiens, UniProt P20309); assay: Inhibition of human muscarinic M3 receptor expressed in CHO cells; format: cell-based
Target sequence in this assay (P20309 whole entry): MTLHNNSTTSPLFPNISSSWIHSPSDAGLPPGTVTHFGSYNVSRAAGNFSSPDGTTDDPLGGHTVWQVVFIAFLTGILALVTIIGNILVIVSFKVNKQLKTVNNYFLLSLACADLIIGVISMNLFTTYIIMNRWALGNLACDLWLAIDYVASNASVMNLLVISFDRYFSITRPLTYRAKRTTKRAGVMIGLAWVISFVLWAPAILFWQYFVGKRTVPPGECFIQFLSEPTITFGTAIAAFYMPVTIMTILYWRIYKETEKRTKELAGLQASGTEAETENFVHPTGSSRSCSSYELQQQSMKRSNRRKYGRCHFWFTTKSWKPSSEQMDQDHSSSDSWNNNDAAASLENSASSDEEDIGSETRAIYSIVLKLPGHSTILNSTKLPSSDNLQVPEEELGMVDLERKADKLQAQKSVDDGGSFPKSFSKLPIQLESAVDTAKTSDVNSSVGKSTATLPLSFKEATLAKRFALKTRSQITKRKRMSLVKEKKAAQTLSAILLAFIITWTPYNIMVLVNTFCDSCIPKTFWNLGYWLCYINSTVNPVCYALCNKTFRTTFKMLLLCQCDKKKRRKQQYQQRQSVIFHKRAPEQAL

[3] = target: T2, Muscarinic acetylcholine receptor M5 (Homo sapiens, UniProt P08912); assay: Inhibition of human muscarinic M5 receptor expressed in CHO cells; format: cell-based
T2 sequence (P08912 whole entry): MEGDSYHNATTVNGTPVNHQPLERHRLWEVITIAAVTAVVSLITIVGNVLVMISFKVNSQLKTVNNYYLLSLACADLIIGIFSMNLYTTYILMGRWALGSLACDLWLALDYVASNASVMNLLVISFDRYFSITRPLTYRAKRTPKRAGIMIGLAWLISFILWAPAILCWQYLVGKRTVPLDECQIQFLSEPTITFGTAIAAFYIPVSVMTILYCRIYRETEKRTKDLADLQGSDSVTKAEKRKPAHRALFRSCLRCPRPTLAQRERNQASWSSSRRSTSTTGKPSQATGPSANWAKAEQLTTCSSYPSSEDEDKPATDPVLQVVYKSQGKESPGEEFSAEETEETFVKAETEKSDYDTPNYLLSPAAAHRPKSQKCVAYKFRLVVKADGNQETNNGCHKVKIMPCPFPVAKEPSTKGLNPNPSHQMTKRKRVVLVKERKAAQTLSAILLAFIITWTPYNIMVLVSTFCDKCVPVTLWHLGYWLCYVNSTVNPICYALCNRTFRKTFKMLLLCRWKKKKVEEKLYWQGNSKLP

[4] = target: T3, Muscarinic acetylcholine receptor M2 (Homo sapiens, UniProt P08172); assay: Inhibition of human muscarinic M2 receptor expressed in CHO cells; format: cell-based
T3 sequence (P08172 whole entry): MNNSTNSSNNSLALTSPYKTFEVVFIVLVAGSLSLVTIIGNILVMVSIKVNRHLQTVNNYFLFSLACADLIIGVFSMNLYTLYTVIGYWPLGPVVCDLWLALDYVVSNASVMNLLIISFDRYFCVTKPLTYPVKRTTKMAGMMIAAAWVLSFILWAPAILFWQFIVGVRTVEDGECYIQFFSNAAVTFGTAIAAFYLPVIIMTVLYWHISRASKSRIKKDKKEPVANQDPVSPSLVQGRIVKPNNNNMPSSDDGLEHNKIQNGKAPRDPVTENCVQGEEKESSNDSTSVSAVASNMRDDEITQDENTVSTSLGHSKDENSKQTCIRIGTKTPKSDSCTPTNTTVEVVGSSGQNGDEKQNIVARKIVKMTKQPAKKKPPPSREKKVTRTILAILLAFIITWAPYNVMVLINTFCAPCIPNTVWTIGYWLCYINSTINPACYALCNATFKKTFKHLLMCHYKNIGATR

[5] = target: T4, Muscarinic acetylcholine receptor M4 (Homo sapiens, UniProt P08173); assay: Inhibition of human muscarinic M4 receptor expressed in CHO cells; format: cell-based
T4 sequence (P08173 whole entry): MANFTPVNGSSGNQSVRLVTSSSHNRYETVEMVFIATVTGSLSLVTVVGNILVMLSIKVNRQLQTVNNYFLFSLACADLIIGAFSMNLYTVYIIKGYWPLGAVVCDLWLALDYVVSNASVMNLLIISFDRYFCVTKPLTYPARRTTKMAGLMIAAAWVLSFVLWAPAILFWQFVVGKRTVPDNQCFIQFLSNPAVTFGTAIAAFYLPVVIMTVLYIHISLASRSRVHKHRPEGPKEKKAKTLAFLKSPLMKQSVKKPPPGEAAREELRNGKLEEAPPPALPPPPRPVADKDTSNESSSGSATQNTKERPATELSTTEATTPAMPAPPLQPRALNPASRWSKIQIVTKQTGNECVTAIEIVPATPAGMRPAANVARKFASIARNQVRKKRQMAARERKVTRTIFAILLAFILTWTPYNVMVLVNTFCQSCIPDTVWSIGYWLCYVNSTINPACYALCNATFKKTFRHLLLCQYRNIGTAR

[6] = species: Homo sapiens; assay: Selectivity ratio of human muscarinic M4 receptor to human muscarinic M1 receptor
[7] = target: Muscarinic acetylcholine receptor M1 and M3 (Homo sapiens) (UniProt P20309+P11229); assay: Selectivity ratio of human muscarinic M3 receptor to human muscarinic M1 receptor
[8] = species: Homo sapiens; assay: Selectivity ratio of human muscarinic M5 receptor to human muscarinic M1 receptor
[9] = target: T5, Muscarinic acetylcholine receptor M1 (Homo sapiens, UniProt P11229); assay: Agonist activity at human muscarinic M1 receptor expressed in CHO cells assessed as effect on acetylcholine-induced intracellular calcium level by FLIPR assay; format: functional, cell-based
T5 sequence (P11229 whole entry): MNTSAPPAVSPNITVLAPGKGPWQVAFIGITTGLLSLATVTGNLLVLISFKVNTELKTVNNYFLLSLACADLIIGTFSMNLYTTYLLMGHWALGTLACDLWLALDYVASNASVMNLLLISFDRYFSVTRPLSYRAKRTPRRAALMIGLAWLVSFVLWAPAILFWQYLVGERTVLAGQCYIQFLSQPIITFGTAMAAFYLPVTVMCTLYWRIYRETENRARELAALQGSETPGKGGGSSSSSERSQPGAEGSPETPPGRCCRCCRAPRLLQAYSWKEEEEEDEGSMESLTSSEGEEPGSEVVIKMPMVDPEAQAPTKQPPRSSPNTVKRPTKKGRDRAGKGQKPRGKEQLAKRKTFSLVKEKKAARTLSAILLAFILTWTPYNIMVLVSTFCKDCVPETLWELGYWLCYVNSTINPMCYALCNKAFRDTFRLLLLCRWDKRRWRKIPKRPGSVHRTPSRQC

[10] = target: T6, Muscarinic acetylcholine receptor M1 (Homo sapiens) (UniProt P11229); assay: Intrinsic activity at human muscarinic M1 receptor expressed in CHO cells assessed as effect on acetylcholine-induced intracellular calcium level by FLIPR assay relative to acetylcholine; format: functional, cell-based
T6 sequence (whole entry): T5 sequence (P11229 whole entry)

[11] = target: T7, Muscarinic acetylcholine receptor M2 (Homo sapiens) (UniProt P08172); assay: Agonist activity at human muscarinic M2 receptor expressed in CHO cells assessed as effect on acetylcholine-induced intracellular calcium level by FLIPR assay; format: functional, cell-based
T7 sequence (whole entry): T3 sequence (P08172 whole entry)

[12] = Ratio of drug level in brain to blood in rat at 10 mg/kg, sc; format: ADME, organism-based; design: dose 10 mg/kg, route subcutaneous
[13] = target: T1, Muscarinic acetylcholine receptor M3; assay: Agonist activity at human muscarinic M3 receptor expressed in CHO cells assessed as effect on acetylcholine-induced intracellular calcium level by FLIPR assay; format: functional, cell-based
Target sequence in this assay (P20309 whole entry, looked up): as the sequence (P20309 whole entry) above

[14] = Half life in rat at 10 mg/kg, sc; format: ADME, organism-based; design: dose 10 mg/kg, route subcutaneous; settings: in vivo
[15] = target: T8, Muscarinic acetylcholine receptor M4 (Homo sapiens) (UniProt P08173); assay: Agonist activity at human muscarinic M4 receptor expressed in CHO cells assessed as effect on acetylcholine-induced intracellular calcium level by FLIPR assay; format: functional, cell-based
T8 sequence (whole entry): T4 sequence (P08173 whole entry)

[16] = target: T9, Muscarinic acetylcholine receptor M5 (Homo sapiens) (UniProt P08912); assay: Agonist activity at human muscarinic M5 receptor expressed in CHO cells assessed as effect on acetylcholine-induced intracellular calcium level by FLIPR assay; format: functional, cell-based
T9 sequence (whole entry): T2 sequence (P08912 whole entry)

[17] = system: Rattus norvegicus; assay: AUC in rat at 10 mg/kg, sc; format: ADME, organism-based, Plasma; design: dose 10 mg/kg, route subcutaneous; settings: in vivo
[18] = system: Rattus norvegicus; assay: AUC in rat at 3 mg/kg, po; format: ADME, organism-based, Plasma; design: dose 3 mg/kg, route oral; settings: in vivo
[19] = Ratio of drug level in brain to blood in rat at 3 mg/kg, po; format: ADME, organism-based; design: dose 3 mg/kg, route oral
[20] = Half life in rat at 3 mg/kg, po; format: ADME, organism-based; design: dose 3 mg/kg, route oral; settings: in vivo

Muscarinic acetylcholine receptor M1 and M3 (Homo sapiens), sequence (P20309 whole entry, looked up, one chain of several): as the sequence (P20309 whole entry) above

Compound | EC50 [9] | IC50 [2] | IC50 [3] | IC50 [4] | Intrinsic activity [10] | IC50 [5] | further results
O=C(NCC1CCNCC1)c1ccccc1-c1nc(Cl)cs1 | 251 nM | – | – | – | – | – | Ratio [1]: 100; EC50 [2]: > 10 µM; EC50 [3]: > 10 µM; EC50 [4]: > 10 µM; EC50 [5]: > 10 µM; Ratio [6]: 100; Ratio [7]: 100; Ratio [8]: 100
O=C(NCC1=CCNCC1)c1c(F)cccc1-c1cccc(Cl)c1 | 3.16 nM | 3.16 µM | 1580 nM | 1260 nM | 91% | 7.94 µM | –
C[C@H]1CNCC[C@@H]1CNC(=O)c1c(F)cccc1-c1cccc(Cl)c1 (relative stereo) | 0.794 nM | 0.0398 µM | 501 nM | 200 nM | 116% | 0.158 µM | Activity [11]: inactive; Kp [12]: 0.9; Activity [13]: inactive; half-life [14]: 138 min; Activity [15]: inactive; Activity [16]: inactive; AUC [17]: 1655 ng·h/g
C[C@H]1CNCC[C@]1(F)CNC(=O)c1c(F)cccc1-c1cccc(Cl)c1 | 10 nM | 5.01 µM | 6310 nM | 2510 nM | 85% | 3.16 µM | AUC [18]: 2221 ng·h/g; Kp [19]: 0.3; half-life [20]: 180 min
